From ChEMBL document CHEMBL1201862, “PubChem BioAssay data set” (2004)
Activity calls are given as the source filed them.

Experiments:
[1] = test system: Streptococcus sp. 'group A'; assay: Streptococcus pyogenes SK(-)GAS viability under kanamycin – luminescence, BacTiterGlo, confirmation, counter-screen for streptokinase expression inhibitor project, dose response (AID 1900); assay type: functional, organism-based
Streptokinase A = molecular target: T1, Streptokinase A (Streptococcus pyogenes serotype M1, UniProt P10520); assay: viability-normalized secreted streptokinase activity reduction – plasminogen activation absorbance, OD405, dose response (AID 1914); assay type: functional, Streptococcus pyogenes M1 GAS;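 also: secreted streptokinase activity via plasminogen activation per viability signal from cell pellet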
T1 sequence (P10520 whole entry): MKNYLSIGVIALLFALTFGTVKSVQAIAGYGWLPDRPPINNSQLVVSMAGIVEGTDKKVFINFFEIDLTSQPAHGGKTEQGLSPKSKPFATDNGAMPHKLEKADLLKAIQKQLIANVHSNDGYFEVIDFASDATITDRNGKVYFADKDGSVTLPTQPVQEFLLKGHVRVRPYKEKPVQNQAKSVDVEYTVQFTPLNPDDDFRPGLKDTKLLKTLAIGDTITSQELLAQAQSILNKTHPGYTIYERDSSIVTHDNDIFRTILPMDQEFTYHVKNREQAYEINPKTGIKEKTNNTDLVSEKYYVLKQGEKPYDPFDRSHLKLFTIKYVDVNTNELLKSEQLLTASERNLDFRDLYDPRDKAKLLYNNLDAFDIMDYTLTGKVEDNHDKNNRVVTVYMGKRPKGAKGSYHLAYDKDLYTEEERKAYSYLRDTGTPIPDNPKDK

[2] = viability of PTEN-deleted HCT116 cells – cell-based, HCT116 PTEN knockout, dose response (AID 1047); assay type: functional;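 also: HCT116 colon tumor cells with PTEN knocked out; cells exposed to compound for 60 hours before readout; potency for loss of cell viability measured by luminescence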
[3] = viability of HCT116 lacking mutant beta-catenin – cell-based, human colon tumor, dose response (AID 1045); assay type: functional;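 also: HCT116 colon tumor cells with beta catenin knocked out; cells exposed to compound for 60 hours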
Streptococcus = assay: GAS UMAA2166 growth inhibition – luminescence, BacTiterGlo, counter-screen for streptokinase expression inhibitor project, dose response (AID 1915); assay type: functional, organism-based;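 also: potency for reduction of bacterial viability or growth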
[4] = molecular target: T2, Short transient receptor potential channel 4 (Mus musculus, UniProt Q9QUQ5); assay: potentiation of DAMGO-evoked TRPC4 calcium signal – cell-based, HEK293 TRPC4/mu-opioid, Fluo-4 calcium, EC20 DAMGO, dose response (AID 434941); assay type: functional
T2 sequence (Q9QUQ5 whole entry): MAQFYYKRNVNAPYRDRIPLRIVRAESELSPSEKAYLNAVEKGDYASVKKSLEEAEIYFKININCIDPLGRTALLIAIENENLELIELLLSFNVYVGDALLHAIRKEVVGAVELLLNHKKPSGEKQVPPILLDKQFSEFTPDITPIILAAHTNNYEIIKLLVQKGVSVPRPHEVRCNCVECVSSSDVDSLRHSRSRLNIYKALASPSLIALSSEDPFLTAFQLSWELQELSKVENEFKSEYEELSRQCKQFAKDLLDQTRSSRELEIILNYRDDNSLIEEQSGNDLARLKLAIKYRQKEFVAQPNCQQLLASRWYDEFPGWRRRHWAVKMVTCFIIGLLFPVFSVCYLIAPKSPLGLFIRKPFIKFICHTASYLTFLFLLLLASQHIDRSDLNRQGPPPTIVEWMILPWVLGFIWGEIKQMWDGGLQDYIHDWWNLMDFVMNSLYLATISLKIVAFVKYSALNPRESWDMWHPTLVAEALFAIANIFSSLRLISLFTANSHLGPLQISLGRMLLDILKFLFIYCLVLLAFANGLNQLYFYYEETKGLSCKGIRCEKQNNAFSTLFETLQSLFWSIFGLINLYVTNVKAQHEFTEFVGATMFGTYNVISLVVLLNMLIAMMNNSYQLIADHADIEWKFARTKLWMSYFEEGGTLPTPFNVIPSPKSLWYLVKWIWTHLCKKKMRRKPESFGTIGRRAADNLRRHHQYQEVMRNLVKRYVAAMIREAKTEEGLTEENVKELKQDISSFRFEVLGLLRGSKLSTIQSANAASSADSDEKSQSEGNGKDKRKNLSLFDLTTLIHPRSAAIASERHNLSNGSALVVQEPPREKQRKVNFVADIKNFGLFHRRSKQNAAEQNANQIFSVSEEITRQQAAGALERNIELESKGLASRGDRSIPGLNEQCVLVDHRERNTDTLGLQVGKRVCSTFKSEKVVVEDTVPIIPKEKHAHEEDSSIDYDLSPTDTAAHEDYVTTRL

[5] = molecular target: T3, Corticotropin-releasing factor receptor 2/Corticotropin-releasing factor-binding protein (Homo sapiens, UniProt P24387+Q13324); assay: activators of CRF receptor 2 with binding protein – uHTS hits, confirmation (AID 602473); assay type: functional; conditions: read-out: EC50_Mean
T3 sequence (Q13324 whole entry): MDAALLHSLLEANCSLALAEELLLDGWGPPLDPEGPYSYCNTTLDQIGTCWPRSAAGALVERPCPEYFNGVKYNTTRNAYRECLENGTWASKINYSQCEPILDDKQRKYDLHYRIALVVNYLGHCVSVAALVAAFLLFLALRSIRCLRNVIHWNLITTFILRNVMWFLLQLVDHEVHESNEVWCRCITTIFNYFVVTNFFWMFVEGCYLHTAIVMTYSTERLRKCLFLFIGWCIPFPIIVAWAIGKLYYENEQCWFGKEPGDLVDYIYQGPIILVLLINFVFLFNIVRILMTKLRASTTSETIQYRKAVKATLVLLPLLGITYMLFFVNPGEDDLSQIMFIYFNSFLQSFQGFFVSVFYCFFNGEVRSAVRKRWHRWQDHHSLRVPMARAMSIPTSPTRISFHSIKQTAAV
T3 sequence (P24387 whole entry): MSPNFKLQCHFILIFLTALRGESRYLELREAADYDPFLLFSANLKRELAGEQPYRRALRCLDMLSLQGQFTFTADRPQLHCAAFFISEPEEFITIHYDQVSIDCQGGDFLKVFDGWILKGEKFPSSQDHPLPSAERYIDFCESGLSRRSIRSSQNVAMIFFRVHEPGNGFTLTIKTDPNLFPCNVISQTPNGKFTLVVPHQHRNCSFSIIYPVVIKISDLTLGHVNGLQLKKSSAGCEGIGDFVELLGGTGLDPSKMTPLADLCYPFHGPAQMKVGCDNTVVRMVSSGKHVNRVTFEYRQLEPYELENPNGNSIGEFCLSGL

[6] = molecular target: Neurotensin receptor type 1 (Homo sapiens, UniProt P30989); assay type: functional;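 also: Image-based confirmatory dose-response assay measuring agonist activity at NTR1; NTR1-expressing U2OS osteosarcoma cells imaged for beta-arrestin GFP spot formation; agonist potency where compounds increase beta-arrestin recruitment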
Chain of Neurotensin receptor type 1 (P30989 whole entry): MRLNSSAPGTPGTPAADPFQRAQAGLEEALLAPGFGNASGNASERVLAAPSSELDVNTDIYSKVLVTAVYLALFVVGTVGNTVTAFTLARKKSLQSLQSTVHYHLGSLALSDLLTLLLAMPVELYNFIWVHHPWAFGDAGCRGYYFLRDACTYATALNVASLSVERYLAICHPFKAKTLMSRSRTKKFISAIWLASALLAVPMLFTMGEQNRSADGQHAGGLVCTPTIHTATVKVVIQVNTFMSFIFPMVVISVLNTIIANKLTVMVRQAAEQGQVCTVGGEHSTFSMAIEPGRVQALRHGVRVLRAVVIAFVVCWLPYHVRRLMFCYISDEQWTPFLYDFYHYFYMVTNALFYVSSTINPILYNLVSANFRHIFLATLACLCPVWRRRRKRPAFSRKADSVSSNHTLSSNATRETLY

[7] = viability of uninfected HEp-2 cells – cell-based, HTS, cytotoxicity control for RSV inhibitor project, dose response (AID 2410); assay type: functional; conditions: human respiratory syncytial virus
[8] = Luminescence Cell-Based Dose Retest to Confirm Inhibitors of Cancer Stem Cells. [Related pubchem assays (depositor defined):AID2717, AID2721]; assay type: functional; conditions: Homo sapiens
X-box-binding protein 1 = X-box-binding protein 1 (Homo sapiens, UniProt P17861); assay type: functional, Cricetulus griseus;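 also: confirmatory dose-response counter-screen serving a CHOP assay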
Chain of X-box-binding protein 1 (P17861 whole entry): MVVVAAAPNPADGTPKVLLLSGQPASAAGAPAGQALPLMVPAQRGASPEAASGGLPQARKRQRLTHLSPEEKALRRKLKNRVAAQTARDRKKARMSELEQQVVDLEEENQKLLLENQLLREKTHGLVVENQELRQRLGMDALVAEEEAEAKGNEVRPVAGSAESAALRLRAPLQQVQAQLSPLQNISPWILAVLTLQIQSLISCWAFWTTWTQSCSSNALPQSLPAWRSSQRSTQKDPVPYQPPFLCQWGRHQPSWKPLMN

[9] = molecular target: Potassium voltage-gated channel subfamily KQT member 2 (Rattus norvegicus, UniProt O88943); assay: potentiation of rat KCNQ2 current – cell-based, retigabine-insensitive compounds, dose response (AID 2654); assay type: functional
Chain of Potassium voltage-gated channel subfamily KQT member 2 (O88943 whole entry): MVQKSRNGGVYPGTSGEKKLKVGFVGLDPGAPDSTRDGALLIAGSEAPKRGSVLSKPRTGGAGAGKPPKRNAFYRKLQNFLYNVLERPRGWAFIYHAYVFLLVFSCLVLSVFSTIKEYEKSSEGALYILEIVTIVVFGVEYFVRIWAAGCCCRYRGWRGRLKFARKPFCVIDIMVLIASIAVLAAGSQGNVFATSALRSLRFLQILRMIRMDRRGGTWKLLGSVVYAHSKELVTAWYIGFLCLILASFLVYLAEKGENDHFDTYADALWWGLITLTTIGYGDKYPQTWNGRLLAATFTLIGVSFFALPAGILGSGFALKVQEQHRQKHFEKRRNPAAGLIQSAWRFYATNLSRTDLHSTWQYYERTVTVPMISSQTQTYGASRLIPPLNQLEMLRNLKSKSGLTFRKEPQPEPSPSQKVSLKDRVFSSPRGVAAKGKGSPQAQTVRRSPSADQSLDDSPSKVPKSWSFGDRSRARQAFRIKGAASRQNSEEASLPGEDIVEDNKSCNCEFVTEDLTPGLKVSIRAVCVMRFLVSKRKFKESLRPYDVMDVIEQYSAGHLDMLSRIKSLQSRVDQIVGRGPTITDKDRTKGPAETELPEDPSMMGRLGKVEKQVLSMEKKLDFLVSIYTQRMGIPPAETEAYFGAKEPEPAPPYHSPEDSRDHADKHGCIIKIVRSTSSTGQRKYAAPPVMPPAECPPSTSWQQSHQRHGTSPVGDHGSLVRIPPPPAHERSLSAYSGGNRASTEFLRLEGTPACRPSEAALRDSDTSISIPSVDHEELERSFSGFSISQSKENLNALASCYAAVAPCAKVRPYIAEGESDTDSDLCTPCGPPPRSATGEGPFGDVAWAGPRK

[10] = molecular target: T4, Intestinal-type alkaline phosphatase (Homo sapiens, UniProt P09923); assay: Dose Response confirmation of uHTS hits from a small molecule inhibitors of human intestinal alkaline phosphatase via a luminescent assay. [Related pubchem assays (depositor defined):AID2544, AID2574]; assay type: functional
T4 sequence (P09923 whole entry): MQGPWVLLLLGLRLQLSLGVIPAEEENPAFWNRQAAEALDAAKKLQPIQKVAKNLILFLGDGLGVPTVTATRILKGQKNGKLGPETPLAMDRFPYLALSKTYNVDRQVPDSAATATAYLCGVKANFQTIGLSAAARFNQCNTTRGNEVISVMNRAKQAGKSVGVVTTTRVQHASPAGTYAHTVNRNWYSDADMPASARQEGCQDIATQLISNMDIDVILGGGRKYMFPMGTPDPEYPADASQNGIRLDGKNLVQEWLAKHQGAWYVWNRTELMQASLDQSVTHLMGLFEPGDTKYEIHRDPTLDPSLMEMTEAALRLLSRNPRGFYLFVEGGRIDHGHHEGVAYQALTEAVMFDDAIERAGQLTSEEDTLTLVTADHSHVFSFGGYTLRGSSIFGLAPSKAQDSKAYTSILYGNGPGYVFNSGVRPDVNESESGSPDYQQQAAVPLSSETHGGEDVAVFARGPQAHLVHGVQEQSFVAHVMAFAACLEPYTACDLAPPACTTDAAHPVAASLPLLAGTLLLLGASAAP

[11] = molecular target: T4, Intestinal-type alkaline phosphatase; assay: human intestinal alkaline phosphatase activators, dose response, biochemical, luminescence, uHTS hits (AID 463120); assay type: functional
Phosphomannomutase 2 = Phosphomannomutase 2 (Homo sapiens, UniProt O15305); assay: Counter screen SAR assay for PMM2 inhibitors via a fluorescence intensity assay. [Related pubchem assays (depositor defined):AID1545, AID1574]
Chain of Phosphomannomutase 2 (O15305 whole entry): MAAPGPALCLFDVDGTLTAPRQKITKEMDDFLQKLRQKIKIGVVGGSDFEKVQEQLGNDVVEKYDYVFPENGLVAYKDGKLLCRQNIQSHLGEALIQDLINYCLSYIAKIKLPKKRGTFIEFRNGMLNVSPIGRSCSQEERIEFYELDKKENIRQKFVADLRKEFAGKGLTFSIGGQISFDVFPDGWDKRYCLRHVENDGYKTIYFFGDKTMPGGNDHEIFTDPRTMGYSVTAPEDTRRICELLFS

[12] = molecular target: Protein phosphatase methylesterase 1 (Homo sapiens, UniProt Q9Y570); assay: endogenous PME-1 and serine hydrolase inhibition – cell lysate, mouse brain cytosol, FP-rhodamine, gel ABPP, selectivity assay for PME-1 inhibitor project, dose response, panel member PME-1 Assay Panel member description: Inhibition of endogenously expressed PME-1 (AID 2366)
Chain of Protein phosphatase methylesterase 1 (Q9Y570 whole entry): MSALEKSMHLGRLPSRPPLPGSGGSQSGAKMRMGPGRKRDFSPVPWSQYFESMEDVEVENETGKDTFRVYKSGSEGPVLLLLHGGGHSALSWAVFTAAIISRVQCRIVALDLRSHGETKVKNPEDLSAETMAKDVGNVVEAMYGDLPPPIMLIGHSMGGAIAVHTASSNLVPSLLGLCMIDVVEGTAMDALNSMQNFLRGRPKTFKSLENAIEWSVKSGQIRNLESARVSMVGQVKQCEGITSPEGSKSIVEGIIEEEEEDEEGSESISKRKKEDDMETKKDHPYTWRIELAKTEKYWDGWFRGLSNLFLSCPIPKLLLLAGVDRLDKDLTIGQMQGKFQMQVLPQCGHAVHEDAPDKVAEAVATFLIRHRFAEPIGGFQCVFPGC

[13] = molecular target: Voltage-dependent T-type calcium channel subunit alpha-1H (Homo sapiens, UniProt O95180); assay: human CACNA1H calcium influx blockade – cell-based, synthetic library set 1, calcium flux (AID 493022); assay type: functional
[14] = molecular target: T5, Tyrosine-protein phosphatase non-receptor type 7 (Homo sapiens, UniProt P35236); assay: redox-active compounds inhibiting HePTP phosphatase – biochemical, fluorescence, mechanism study (AID 2068); assay type: functional
T5 sequence (P35236 whole entry): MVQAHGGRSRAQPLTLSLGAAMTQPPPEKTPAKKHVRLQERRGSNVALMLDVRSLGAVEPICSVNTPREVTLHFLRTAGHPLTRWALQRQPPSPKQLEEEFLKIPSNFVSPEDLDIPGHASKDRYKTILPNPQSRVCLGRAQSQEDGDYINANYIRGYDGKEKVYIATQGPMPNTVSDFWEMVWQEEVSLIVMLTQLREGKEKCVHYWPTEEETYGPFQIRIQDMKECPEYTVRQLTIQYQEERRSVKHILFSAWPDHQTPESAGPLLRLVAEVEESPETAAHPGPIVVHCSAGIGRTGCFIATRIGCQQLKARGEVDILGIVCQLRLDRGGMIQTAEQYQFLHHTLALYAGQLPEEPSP

[15] = molecular target: Dual specificity protein phosphatase 3 (Homo sapiens, UniProt P51452); assay: SAR VHR1 Fluorescent Assay for In Vitro dose response studies Set 2. [Related pubchem assays (depositor defined):AID1654, AID1661, AID1878]; assay type: functional
[16] = molecular target: T6, Dual specificity protein phosphatase 6 (Rattus norvegicus, UniProt Q64346); assay type: functional;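 also: confirmatory in vitro dose-response testing of MKP-3 inhibition; recombinant His-tagged MKP-3 made in E. coli BL21 with OMFP substrate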
T6 sequence (Q64346 whole entry): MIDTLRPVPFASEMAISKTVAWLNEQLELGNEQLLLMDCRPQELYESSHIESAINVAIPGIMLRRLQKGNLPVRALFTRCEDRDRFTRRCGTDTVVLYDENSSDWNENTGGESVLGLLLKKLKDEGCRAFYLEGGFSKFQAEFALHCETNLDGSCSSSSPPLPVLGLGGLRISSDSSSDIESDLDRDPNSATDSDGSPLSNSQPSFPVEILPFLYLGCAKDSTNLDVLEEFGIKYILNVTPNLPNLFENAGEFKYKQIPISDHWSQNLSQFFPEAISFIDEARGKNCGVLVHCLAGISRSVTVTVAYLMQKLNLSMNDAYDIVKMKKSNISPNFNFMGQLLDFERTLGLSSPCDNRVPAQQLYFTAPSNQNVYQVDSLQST

[17] = molecular target: Metabotropic glutamate receptor 4 (Homo sapiens, UniProt Q14833); assay: Modulation of the Metabotropic Glutamate Receptor mGluR4: Potency at human mGluR4. Modulation of intracellular Ca2+ using Fluo-4, AM, in CHO expressing recombinant receptor [Related pubchem assays (depositor defined):AID2437, AID2807]; assay type: functional, cell-based
[18] = molecular target: Metabotropic glutamate receptor 4 (Rattus norvegicus, UniProt P31423); assay: Modulation of the Metabotropic Glutamate Receptor mGluR4: Rat PAM Potency. [Related pubchem assays (depositor defined):AID2437, AID2807]; assay type: functional
Chain of Metabotropic glutamate receptor 4 (Rattus norvegicus, UniProt P31423) (P31423 whole entry, the tested form may be a part): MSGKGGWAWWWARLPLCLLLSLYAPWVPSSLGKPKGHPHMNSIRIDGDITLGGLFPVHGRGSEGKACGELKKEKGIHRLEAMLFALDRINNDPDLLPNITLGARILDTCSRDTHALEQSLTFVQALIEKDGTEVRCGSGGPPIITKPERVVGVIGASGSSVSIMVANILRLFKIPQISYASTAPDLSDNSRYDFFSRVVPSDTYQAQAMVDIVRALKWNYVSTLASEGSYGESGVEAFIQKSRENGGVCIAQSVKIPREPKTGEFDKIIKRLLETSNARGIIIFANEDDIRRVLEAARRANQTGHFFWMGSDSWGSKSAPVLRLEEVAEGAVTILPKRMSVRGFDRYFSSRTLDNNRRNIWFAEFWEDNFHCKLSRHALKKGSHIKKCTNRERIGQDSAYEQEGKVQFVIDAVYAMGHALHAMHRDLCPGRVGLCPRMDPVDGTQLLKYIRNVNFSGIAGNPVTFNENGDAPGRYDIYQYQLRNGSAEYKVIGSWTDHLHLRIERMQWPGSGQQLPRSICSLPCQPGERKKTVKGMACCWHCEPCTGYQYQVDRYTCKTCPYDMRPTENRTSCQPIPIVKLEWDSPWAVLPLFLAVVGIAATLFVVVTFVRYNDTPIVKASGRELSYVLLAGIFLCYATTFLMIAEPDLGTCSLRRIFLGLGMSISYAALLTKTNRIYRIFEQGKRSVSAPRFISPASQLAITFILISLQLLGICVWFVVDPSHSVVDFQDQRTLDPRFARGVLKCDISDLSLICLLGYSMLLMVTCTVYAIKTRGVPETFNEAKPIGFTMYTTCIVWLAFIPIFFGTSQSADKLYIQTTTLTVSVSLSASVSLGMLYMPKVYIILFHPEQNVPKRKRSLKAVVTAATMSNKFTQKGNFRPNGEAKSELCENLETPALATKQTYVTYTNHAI

[19] = molecular target: 1-acylglycerol-3-phosphate O-acyltransferase ABHD5/Perilipin-5 (Homo sapiens, UniProt Q00G26+Q8WTS1); assay: Luminescence-based biochemical high throughput dose response assay for inhibitors of the interaction of the lipase co-activator protein, abhydrolase domain containing 5 (ABHD5) with perilipin-5 (MLDP; PLIN5) (2K validation set). [Related pubchem assays (depositor defined):AID493035, AID493241]
Chain of 1-acylglycerol-3-phosphate O-acyltransferase ABHD5/Perilipin-5 (Q00G26 whole entry, the tested form may be a part): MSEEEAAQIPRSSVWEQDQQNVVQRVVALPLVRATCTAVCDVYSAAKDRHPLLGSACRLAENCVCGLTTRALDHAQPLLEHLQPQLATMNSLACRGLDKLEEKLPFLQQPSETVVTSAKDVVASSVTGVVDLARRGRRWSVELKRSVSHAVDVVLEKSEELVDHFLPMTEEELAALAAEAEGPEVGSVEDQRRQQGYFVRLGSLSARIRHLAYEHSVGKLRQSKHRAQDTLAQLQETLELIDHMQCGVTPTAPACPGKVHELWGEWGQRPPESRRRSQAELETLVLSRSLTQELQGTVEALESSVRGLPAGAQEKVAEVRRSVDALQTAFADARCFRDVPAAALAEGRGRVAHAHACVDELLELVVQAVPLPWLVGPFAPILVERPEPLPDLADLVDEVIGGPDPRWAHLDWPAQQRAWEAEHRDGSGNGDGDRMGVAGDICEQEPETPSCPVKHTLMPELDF
Chain of 1-acylglycerol-3-phosphate O-acyltransferase ABHD5/Perilipin-5 (Q8WTS1 whole entry, the tested form may be a part): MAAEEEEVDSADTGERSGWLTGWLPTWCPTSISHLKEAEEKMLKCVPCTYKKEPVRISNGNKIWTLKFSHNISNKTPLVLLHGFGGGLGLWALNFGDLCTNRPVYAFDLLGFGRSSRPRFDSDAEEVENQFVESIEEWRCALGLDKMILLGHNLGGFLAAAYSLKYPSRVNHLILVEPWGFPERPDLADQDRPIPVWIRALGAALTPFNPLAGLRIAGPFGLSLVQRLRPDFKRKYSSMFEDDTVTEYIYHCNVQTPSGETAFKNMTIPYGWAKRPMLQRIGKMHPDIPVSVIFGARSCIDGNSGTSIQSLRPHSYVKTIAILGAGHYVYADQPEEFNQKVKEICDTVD

Perilipin-1/ABHD5 = Perilipin-1/ABHD5 (Homo sapiens, UniProt O60240+Q8WTS1); assay: Luminescence-based biochemical high throughput dose response assay for inhibitors of the interaction of the lipase co-activator protein, abhydrolase domain containing 5 (ABHD5) with perilipin-1 (PLIN1) (2K validation set). [Related pubchem assays (depositor defined):AID493027, AID493057]
Cytochrome P450 2C9 = Cytochrome P450 2C9 (Homo sapiens, UniProt P11712)
Chain of Cytochrome P450 2C9 (P11712 whole entry): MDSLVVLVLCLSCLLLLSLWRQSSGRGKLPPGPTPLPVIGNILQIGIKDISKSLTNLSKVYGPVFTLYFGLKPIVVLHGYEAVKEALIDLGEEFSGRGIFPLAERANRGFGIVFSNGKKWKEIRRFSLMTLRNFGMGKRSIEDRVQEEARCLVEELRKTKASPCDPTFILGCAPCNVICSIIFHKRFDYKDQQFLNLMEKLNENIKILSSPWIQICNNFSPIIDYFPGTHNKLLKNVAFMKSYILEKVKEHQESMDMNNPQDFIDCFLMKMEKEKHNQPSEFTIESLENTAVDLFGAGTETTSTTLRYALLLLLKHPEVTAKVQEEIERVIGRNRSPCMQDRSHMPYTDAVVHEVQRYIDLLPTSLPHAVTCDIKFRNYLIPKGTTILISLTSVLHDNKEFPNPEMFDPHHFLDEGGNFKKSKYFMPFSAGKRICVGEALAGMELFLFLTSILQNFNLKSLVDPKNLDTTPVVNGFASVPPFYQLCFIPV

Cc1ccc(Cl)cc1N1CCN(C(=O)c2cccc3c(=O)c(C)c(-c4ccccc4)oc23)CC1
EC50 [1]: 5.59 µM (active)
EC50 (Streptokinase A): 16 µM (active)
EC50 [2]: 8.26 µM (active)
EC50 [3]: 9.86 µM (active)
EC50 (Streptococcus): > 150 µM (not active)
EC50 [4]: 6.68 µM (active)
EC50 [5]: > 53 µM (inactive)

O=C1NC(=O)N(Cc2ccc(F)cc2)C(=O)/C1=C/c1cccs1
EC50 [6]: 12.6 µM (active)

CCc1cc(-c2[nH]nc(C)c2Oc2ccc(C(C)C)cc2)c(O)cc1O
CC50 [7]: 15.9 µM (active)
EC50 [1]: 2.28 µM (active)
EC50 (Streptococcus): 4.99 µM (active)
AC50 [8]: 3.13 µM (active)
Absolute IC50 (XBP1) (X-box-binding protein 1): < 10 µM

O=C(Nc1ccc(Cl)cc1)Nc1cccnc1
EC50 [9]: 6.85 µM (active)

CC(=O)Nc1ccc(NC(=O)C2CC(=O)N(C(C)C)C2)cc1 (configuration not stated)
IC50 [10]: > 100 µM (inactive)
EC50 [11]: > 100 µM (inactive)

CN(C)c1cccc(/N=c2\ssnc2Cl)c1
IC50 (Phosphomannomutase 2): > 100 µM (inactive)

N#C/C(=C\c1cccn1S(=O)(=O)c1ccccc1)C(=O)c1ccccc1
IC50 [12]: > 20 µM (inactive)

O=C(COc1ccccc1F)Nc1nnc(-c2ccc(F)cc2)o1
EC50 [13]: 10 µM (active)

NS(=O)(=O)c1cc(C(=O)Nc2cccc(Cl)c2)ccc1Cl
IC50 [14]: > 100 µM (inactive)
IC50 [15]: > 100 µM (inactive)
IC50 [16]: > 100 µM (inactive)

O=C(Nc1ccc2c(c1)OCO2)c1ccccn1
EC50 [17]: 9.66 µM (active)
EC50 [18]: 7.17 µM (active)

CC1=CC(=O)c2ccccc2C1=O [MENADIONE]
IC50 [19]: 9.47 µM (active)
IC50 (Perilipin-1/ABHD5): 7.9 µM (active)
AC50 (Cytochrome P450 2C9): 6.31 µM (inconclusive)
